Results from ChEMBL document CHEMBL3885861, “Open TG-GATES”.

Species: Rattus norvegicus
Assay: Open TG-GATES - Regimen: Daily Repeat
Format: toxicity, organism-based, Sprague-Dawley
Parameters: regimen Daily Repeat, gender Male, age 6 weeks
Conditions: in vivo, po, route gavage; for gamma-GTP / ALP / ALT / AST / BUN / CRE / Ca / Cl / DBIL / GLC / IP / K / LDH / Na / PL / RALB / TBIL / TC / TG / TP: tissue Plasma; for APTT / Bas / Eos / Fbg / Hb / Ht / Lym / MCH / MCHC / MCV / Mono / Neu / PT / Plat / RBC / Ret / WBC: tissue Blood; for KIDNEY_L / KIDNEY_R / KIDNEY_TOTAL: tissue Kidney; for LIVER: tissue Liver
[1] = 300 mg/kg, 72 h, dose level Middle, time 3 day
[2] = 300 mg/kg, […], dose level Middle, time 7 day
[3] = 300 mg/kg, […], dose level Middle, time 14 day
[4] = 300 mg/kg, […], dose level Middle, time 28 day

## COC(=O)C1=C(C)NC(C)=C(C(=O)OC)C1c1ccccc1[N+](=O)[O-] [NIFEDIPINE]
100 mg/kg, […], dose level Low, time 28 day
  gamma-GTP: 1 IU/L
[1]
  TERMINAL_BW: 223.2 g
  APTT: 18.7 s
  Bas: 0.4%
  Eos: 1%
  Fbg: 277 mg/dL
  Hb: 13.5 g/dL
  Ht: 41.7%
  Lym: 73%
  MCH: 21.3 pg
  MCHC: 32.3%
  MCV: 66.1 fL
  Mono: 3.6%
  Neu: 21%
  PT: 13.8 s
  Plat: 123.7 x10_4/uL
  RBC: 630.8 x10_4/ul
  Ret: 10.7%
  WBC: 113.4 x10_2/uL
  KIDNEY_L: 0.9 g
  KIDNEY_R: 0.9 g
  KIDNEY_TOTAL: 1.9 g
  LIVER: 11.7 g
  ALP: 1580.8 IU/L
  ALT: 48.2 IU/L
  AST: 68.4 IU/L
  BUN: 14.2 mg/dL
  CRE: 0.2 mg/dL
  Ca: 10.9 mg/dL
  Cl: 107.2 meq/L
  DBIL: 0.018 mg/dL
  GLC: 165.8 mg/dL
  IP: 7.1 mg/dL
  K: 4 meq/L
  LDH: 84.2 IU/L
  Na: 144.4 meq/L
  PL: 159.2 mg/dL
  RALB: 2.6 g/dL
  TBIL: 0.03 mg/dL
  TC: 89.4 mg/dL
  TG: 94.2 mg/dL
  TP: 5.6 g/dL
  gamma-GTP: 1 IU/L
[2]
  TERMINAL_BW: 254 g
  APTT: 15.7 s
  Bas: 0.2%
  Eos: 1%
  Fbg: 292.6 mg/dL
  Hb: 13.9 g/dL
  Ht: 42.7%
  Lym: 69.4%
  MCH: 20.7 pg
  MCHC: 32.6%
  MCV: 63.6 fL
  Mono: 3%
  Neu: 26%
  PT: 13.6 s
  Plat: 128.9 x10_4/uL
  RBC: 671 x10_4/ul
  Ret: 6.2%
  WBC: 113.1 x10_2/uL
  KIDNEY_L: 1 g
  KIDNEY_R: 1 g
  KIDNEY_TOTAL: 2 g
  LIVER: 12.8 g
  ALP: 1439.4 IU/L
  ALT: 43.8 IU/L
  AST: 68.6 IU/L
  BUN: 15.4 mg/dL
  CRE: 0.2 mg/dL
  Ca: 10.8 mg/dL
  Cl: 107.6 meq/L
  DBIL: 0.012 mg/dL
  GLC: 167 mg/dL
  IP: 7 mg/dL
  K: 3.9 meq/L
  Na: 145.6 meq/L
  PL: 154.4 mg/dL
  RALB: 2.8 g/dL
  TBIL: 0.022 mg/dL
  TC: 83.4 mg/dL
  TG: 102 mg/dL
  TP: 5.9 g/dL
  gamma-GTP: 1 IU/L
[3]
  TERMINAL_BW: 319.9 g
  APTT: 19 s
  Bas: 0%
  Eos: 1%
  Fbg: 281.4 mg/dL
  Hb: 14.8 g/dL
  Ht: 44.7%
  Lym: 74.8%
  MCH: 20.6 pg
  MCHC: 33.2%
  MCV: 62.1 fL
  Mono: 3%
  Neu: 20%
  PT: 14 s
  Plat: 117.6 x10_4/uL
  RBC: 719 x10_4/ul
  Ret: 4.9%
  WBC: 97.5 x10_2/uL
  KIDNEY_L: 1.2 g
  KIDNEY_R: 1.2 g
  KIDNEY_TOTAL: 2.3 g
  LIVER: 14.9 g
  ALP: 1236.4 IU/L
  ALT: 47.6 IU/L
  AST: 69.4 IU/L
  BUN: 18.2 mg/dL
  CRE: 0.2 mg/dL
  Ca: 10.9 mg/dL
  Cl: 107.6 meq/L
  DBIL: 0.012 mg/dL
  GLC: 172.6 mg/dL
  IP: 7 mg/dL
  K: 4.2 meq/L
  LDH: 48 IU/L
  Na: 143.8 meq/L
  PL: 150 mg/dL
  RALB: 2.7 g/dL
  TBIL: 0.018 mg/dL
  TC: 79.6 mg/dL
  TG: 115.8 mg/dL
  TP: 5.8 g/dL
  gamma-GTP: 1 IU/L
[4]
  TERMINAL_BW: 380.8 g
  APTT: 18.7 s
  Bas: 0.4%
  Eos: 1%
  Fbg: 277 mg/dL
  Hb: 13.5 g/dL
  Ht: 41.7%
  Lym: 73%
  MCH: 21.3 pg
  MCHC: 32.3%
  MCV: 66.1 fL
  Mono: 3.6%
  Neu: 21%
  PT: 13.8 s
  Plat: 123.7 x10_4/uL
  RBC: 630.8 x10_4/ul
  Ret: 10.7%
  WBC: 113.4 x10_2/uL
  KIDNEY_L: 1.3 g
  KIDNEY_R: 1.2 g
  KIDNEY_TOTAL: 2.5 g
  LIVER: 15.8 g
  ALP: 1129.6 IU/L
  ALT: 40 IU/L
  AST: 73.8 IU/L
  BUN: 17.8 mg/dL
  CRE: 0.3 mg/dL
  Ca: 10.3 mg/dL
  Cl: 106.6 meq/L
  DBIL: 0.012 mg/dL
  GLC: 165 mg/dL
  IP: 5.7 mg/dL
  K: 3.8 meq/L
  LDH: 56.2 IU/L
  Na: 143.8 meq/L
  PL: 146 mg/dL
  RALB: 2.7 g/dL
  TBIL: 0.026 mg/dL
  TC: 73 mg/dL
  TG: 126.8 mg/dL
